#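 Step 1: Grow cells in 96-well plates. Step 2: Expose to compound for 48 hours at 5 concentrations. Step 3: Interpolate endpoints linearly; if unreached, use highest concentration. Abbreviation: GI50, concentration required for 50% inhibition of growth. TGI is the concentration that stops growth completely.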
# How the values were obtained:
# Test in all cases: NCI tumour cell line growth inhibition, 48 h
# [1] = tested on: SN12C renal
# [2] = tested on: UO-31 renal
# [3] = tested on: U251 CNS
# [4] = tested on: NCI-H460 lung
# [5] = tested on: MALME-3M melanoma
# [6] = tested on: NCI-H23 lung
# [7] = tested on: HS 578T breast
# [8] = tested on: CCRF-CEM leukemia
# [9] = tested on: UACC-62 melanoma
# [10] = tested on: SNB-75 CNS
# [11] = tested on: HOP-62 NSCLC
# [12] = tested on: RXF 393 renal
# [13] = tested on: K-562 leukemia
# [14] = tested on: HL-60(TB) leukemia
# [15] = tested on: A498 renal
# [16] = tested on: NCI-H522 lung
# [17] = tested on: MDA-MB-435
# [18] = tested on: HT29 colon
# [19] = tested on: ACHN renal
# [20] = tested on: OVCAR-3 ovarian
# [21] = tested on: 786-0 renal
# [22] = tested on: OVCAR-8 ovarian
# [23] = tested on: EKVX NSCLC
# [24] = tested on: SF-539 CNS
# [25] = tested on: SK-OV-3 ovarian
# [26] = tested on: IGROV1 ovarian
# [27] = tested on: SK-MEL-2 melanoma
# [28] = tested on: HCT-116 colon
# [29] = tested on: UACC-257 melanoma
# [30] = tested on: SW-620 colon
# [31] = tested on: MDA-MB-231 breast
# [32] = tested on: DU-145 prostate
# [33] = tested on: SNB-19 CNS
# [34] = tested on: BT-549 breast
# [35] = tested on: HCT-15 colon
# [36] = tested on: HCC-2998 colon
# [37] = tested on: CAKI-1 renal
# [38] = tested on: SK-MEL-5 melanoma
# [39] = tested on: M14 melanoma
# [40] = tested on: SF-295 CNS
# [41] = tested on: SF-268 CNS
# [42] = tested on: A549 NSCLC
# [43] = tested on: SK-MEL-28 melanoma
# [44] = tested on: MCF7 breast
# [45] = tested on: PC-3 prostate
# [46] = tested on: KM12 colon
# [47] = tested on: HOP-92 NSCLC
# [48] = tested on: TK-10 renal
# [49] = tested on: NCI-H226 lung
# [50] = tested on: OVCAR-5 ovarian
smiles,measurement,setting,value
COc1cccc(Nc2ncnc3cc(NC(=O)CCl)ccc23)c1,GI50,[1],1150 nM
same,TGI,[1],2440 nM
same,GI50,[2],1110 nM
same,TGI,[2],2430 nM
same,GI50,[3],330 nM
same,TGI,[3],1120 nM
same,GI50,[4],1320 nM
same,TGI,[4],3080 nM
same,GI50,[5],1070 nM
same,TGI,[5],2510 nM
same,GI50,[6],1610 nM
same,TGI,[6],3920 nM
same,GI50,[7],1840 nM
same,TGI,[7],8150 nM
same,GI50,[8],392 nM
same,TGI,[8],2160 nM
same,GI50,[9],1130 nM
same,TGI,[9],2480 nM
same,GI50,[10],379 nM
same,TGI,[10],2280 nM
same,GI50,[11],1480 nM
same,TGI,[11],3060 nM
same,GI50,[12],1460 nM
same,TGI,[12],2940 nM
same,GI50,[13],343 nM
same,TGI,[13],2000 nM
same,GI50,[14],1270 nM
same,TGI,[14],3540 nM
same,GI50,[15],1720 nM
same,TGI,[15],3810 nM
same,GI50,[16],388 nM
same,TGI,[16],1630 nM
same,GI50,[17],821 nM
same,TGI,[17],2210 nM
same,GI50,[18],499 nM
same,TGI,[18],1850 nM
same,GI50,[19],1080 nM
same,TGI,[19],2340 nM
same,GI50,[20],768 nM
same,TGI,[20],2220 nM
same,GI50,[21],1550 nM
same,TGI,[21],3100 nM
same,GI50,[22],1880 nM
same,TGI,[22],5160 nM
same,GI50,[23],1560 nM
same,TGI,[23],4490 nM
same,GI50,[24],1520 nM
same,TGI,[24],2920 nM
same,GI50,[25],1580 nM
same,TGI,[25],3150 nM
same,GI50,[26],568 nM
same,TGI,[26],2250 nM
same,GI50,[27],1690 nM
same,TGI,[27],3480 nM
same,GI50,[28],1020 nM
same,TGI,[28],2470 nM
same,GI50,[29],1410 nM
same,TGI,[29],3020 nM
same,GI50,[30],612 nM
same,TGI,[30],2100 nM
same,GI50,[31],1270 nM
same,TGI,[31],2600 nM
same,GI50,[32],1230 nM
same,TGI,[32],2600 nM
same,GI50,[33],1500 nM
same,TGI,[33],3220 nM
same,GI50,[34],1230 nM
same,TGI,[34],2690 nM
same,GI50,[35],353 nM
same,TGI,[35],1620 nM
same,GI50,[36],1810 nM
same,TGI,[36],3700 nM
same,GI50,[37],1060 nM
same,TGI,[37],2310 nM
same,GI50,[38],1250 nM
same,TGI,[38],2550 nM
same,GI50,[39],1390 nM
same,TGI,[39],3000 nM
same,GI50,[40],1680 nM
same,TGI,[40],3190 nM
same,GI50,[41],1420 nM
same,TGI,[41],3240 nM
same,GI50,[42],1480 nM
same,TGI,[42],3110 nM
same,GI50,[43],1650 nM
same,TGI,[43],3240 nM
same,GI50,[44],789 nM
same,TGI,[44],3190 nM
same,GI50,[45],1120 nM
same,TGI,[45],2460 nM
same,GI50,[46],1360 nM
same,TGI,[46],2900 nM
same,GI50,[47],1700 nM
same,TGI,[47],3400 nM
same,GI50,[48],1200 nM
same,TGI,[48],2520 nM
same,GI50,[49],1910 nM
same,TGI,[49],4550 nM
same,GI50,[50],1610 nM
same,TGI,[50],3020 nM

# From PubChem BioAssay (NCI)
